Assay results as given in patent US11267824B2, “Inhibitors of indoleamine 2,3-dioxygenase and/or tryptophan 2,3-dioxygenase” (IDORSIA PHARMACEUTICALS LTD, priority 2017, dated 2022).
One block for each compound: values may come before it.

What was measured:
[1] = target: Recombinant full-length human IDO1 (Homo sapiens (Human), UniProt P14902); assay: IDO1 enzymatic assay (IDO inhibitory activity); type: biochemical; conditions: 2 nM enzyme, 5 μM L-tryptophan, pH6.5, 30 min pre-incubation, NFK quantified by LCMS; mean values if measured multiple times; read-out: hIDO activity (IC50 in nM)
How it was run: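 N-His-tagged enzyme from E. coli at 2 nM in 37.5 mM phosphate pH6.5 with ascorbate, methylene blue, catalase; compounds 10 μM–0.5 nM, 0.6% DMSO, pre-incubated 30 min RT, then 5 μM L-tryptophan for 30 min RT. NFK quantified by LCMS against d5-tryptophan; IC50 from duplicate four-parameter fit, means where repeated.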

[2] = target: Recombinant human TDO comprising amino acids 19-407 (Homo sapiens (Human), UniProt P48775); assay: TDO2 enzymatic assay (TDO inhibitory activity); type: biochemical; conditions: 15 nM enzyme, 200 μM L-tryptophan, pH7, 30 min pre-incubation, NFK quantified by LCMS; mean values if measured multiple times; read-out: hTDO activity (IC50 in nM)
How it was run: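 His-tagged enzyme (15 nM, E. coli-expressed) in pH 7 phosphate buffer with ascorbate, catalase, BSA, Tween 20, 0.6% DMSO; 30 min RT pre-incubation with compound (10 μM–0.5 nM), then 200 μM L-tryptophan for 30 min RT. N′-formylkynurenine quantified by LCMS against deuterated tryptophan; IC50 by four-parameter fit, duplicates.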

Chain of Recombinant full-length human IDO1 (P14902 whole entry): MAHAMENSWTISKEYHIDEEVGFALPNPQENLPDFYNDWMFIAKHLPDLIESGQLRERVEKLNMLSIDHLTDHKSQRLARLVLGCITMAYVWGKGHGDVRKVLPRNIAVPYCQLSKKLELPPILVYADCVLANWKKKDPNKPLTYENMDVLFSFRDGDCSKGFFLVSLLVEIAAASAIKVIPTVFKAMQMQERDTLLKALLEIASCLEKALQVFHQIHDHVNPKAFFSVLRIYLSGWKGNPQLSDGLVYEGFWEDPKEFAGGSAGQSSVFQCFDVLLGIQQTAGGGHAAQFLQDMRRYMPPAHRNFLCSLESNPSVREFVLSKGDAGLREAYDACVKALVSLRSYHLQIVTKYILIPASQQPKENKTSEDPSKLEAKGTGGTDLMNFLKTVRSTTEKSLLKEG
Chain of Recombinant human TDO comprising amino acids 19-407 (P48775 19-406 limits assumed): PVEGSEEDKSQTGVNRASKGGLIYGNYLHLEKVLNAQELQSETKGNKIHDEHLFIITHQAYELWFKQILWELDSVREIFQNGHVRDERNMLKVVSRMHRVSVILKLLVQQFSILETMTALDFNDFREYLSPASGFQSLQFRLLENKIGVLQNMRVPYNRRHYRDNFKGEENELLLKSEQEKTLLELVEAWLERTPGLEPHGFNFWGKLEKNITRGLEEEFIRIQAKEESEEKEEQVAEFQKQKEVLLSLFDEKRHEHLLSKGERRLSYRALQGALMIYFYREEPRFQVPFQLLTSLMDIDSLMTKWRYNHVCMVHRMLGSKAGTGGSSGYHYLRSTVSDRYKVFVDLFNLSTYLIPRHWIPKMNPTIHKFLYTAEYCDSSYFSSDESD

SMILES: O[C@@H](CC1CCCCC1)c1c(Cl)sc2cncn12 [Example 16a, (S)-1-(2-Chloro-imidazo[5,1-b]thiazol-3-yl)-2-cyclohexyl-ethanol]
IC50 [1]: 35.6 nM
IC50 [2]: 658 nM

SMILES: CC1CCCC(C(O)c2c(C3CC3)sc3cncn23)C1 (stereo not shown) [Example 27, (2-Cyclopropyl-imidazo[5,1-b]thiazol-3-yl)-(3-methyl-cyclohexyl)-methanol]
IC50 [1]: 17.2 nM
IC50 [2]: 384 nM

SMILES: CC1CCCC(CC(O)c2c(C3CC3)sc3cncn23)C1 (stereo not shown) [Example 29, 1-(2-Cyclopropyl-imidazo[5,1-b]thiazol-3-yl)-2-(3-methyl-cyclohexyl)-ethanol]
IC50 [1]: 21.4 nM
IC50 [2]: 509 nM

SMILES: CC1CCC(C(O)c2c(C3CC3)sc3cncn23)C1 (stereo not shown) [Example 30, (2-Cyclopropyl-imidazo[5,1-b]thiazol-3-yl)-(3-methyl-cyclopentyl)-methanol]
IC50 [1]: 12.1 nM
IC50 [2]: 454 nM

SMILES: CC1CCCCC1CC(O)c1c(C2CC2)sc2cncn12 (stereo not shown) [Example 31, 1-(2-Cyclopropyl-imidazo[5,1-b]thiazol-3-yl)-2-(2-methyl-cyclohexyl)-ethanol]
IC50 [1]: 45.2 nM
IC50 [2]: 411 nM

SMILES: CC1(C)CCC(CC(O)c2c(C3CC3)sc3cncn23)C1 (stereo not shown) [Example 34, 1-(2-Cyclopropyl-imidazo[5,1-b]thiazol-3-yl)-2-(3,3-dimethyl-cyclopentyl)-ethanol]
IC50 [1]: 39.4 nM
IC50 [2]: 321 nM

SMILES: OC(CC1CCC(c2ccccc2)C1)c1c(C2CC2)sc2cncn12 (stereo not shown) [Example 35, 1-(2-Cyclopropyl-imidazo[5,1-b]thiazol-3-yl)-2-(3-phenyl-cyclopentyl)-ethanol]
IC50 [1]: 114 nM
IC50 [2]: 1570 nM

SMILES: OC(CC1CC2C=CC1C2)c1c(C2CC2)sc2cncn12 (stereo not shown) [Example 38, 2-Bicyclo[2.2.1]hept-5-en-2-yl-1-(2-cyclopropyl-imidazo[5,1-b]thiazol-3-yl)-ethanol]
IC50 [1]: 22.6 nM
IC50 [2]: 191 nM

SMILES: OC(CC1CC2CCC1O2)c1c(C2CC2)sc2cncn12 (stereo not shown) [Example 41, 1-(2-Cyclopropyl-imidazo[5,1-b]thiazol-3-yl)-2-(7-oxa-bicyclo[2.2.1]hept-2-yl)-ethanol]
IC50 [1]: 93.4 nM
IC50 [2]: 2340 nM

SMILES: CC1(C)CCC(C(O)c2c(C3CC3)sc3cncn23)C1 (stereo not shown) [Example 47, (2-Cyclopropyl-imidazo[5,1-b]thiazol-3-yl)-(3,3-dimethyl-cyclopentyl)-methanol]
IC50 [1]: 18.8 nM
IC50 [2]: 287 nM

SMILES: CC1CCCC1C(O)c1c(C2CC2)sc2cncn12 (stereo not shown) [Example 48, (2-Cyclopropyl-imidazo[5,1-b]thiazol-3-yl)-(2-methyl-cyclopentyl)-methanol]
IC50 [1]: 8.4 nM
IC50 [2]: 70.6 nM

SMILES: CC(CC(O)c1c(C2CC2)sc2cncn12)C1CCCCC1 (stereo not shown) [Example 65, 3-Cyclohexyl-1-(2-cyclopropyl-imidazo[5,1-b]thiazol-3-yl)-butan-1-ol]
IC50 [1]: 124 nM
IC50 [2]: 931 nM

SMILES: CCC(C1CCCCC1)C(O)c1c(C2CC2)sc2cncn12 (stereo not shown) [Example 66, 2-Cyclohexyl-1-(2-cyclopropyl-imidazo[5,1-b]thiazol-3-yl)-butan-1-ol]
IC50 [1]: 1570 nM
IC50 [2]: > 10200 nM

SMILES: CC1(C)CCCC(C(O)c2c(C3CC3)sc3cncn23)C1 (stereo not shown) [Example 69, (2-Cyclopropyl-imidazo[5,1-b]thiazol-3-yl)-(3,3-dimethyl-cyclohexyl)-methanol]
IC50 [1]: 40 nM
IC50 [2]: 255 nM

SMILES: OC(CC1CCCCC1c1ccccc1)c1c(C2CC2)sc2cncn12 (stereo not shown) [Example 75, 1-(2-Cyclopropyl-imidazo[5,1-b]thiazol-3-yl)-2-(2-phenyl-cyclohexyl)-ethanol]
IC50 [1]: 1040 nM
IC50 [2]: 9460 nM

SMILES: CC1(C)CCCCC1CC(O)c1c(C2CC2)sc2cncn12 (stereo not shown) [Example 76, 1-(2-Cycclopropyl-imidazo[5,1-b]thiazol-3-yl)-2-(2,2-dimethyl-cyclohexyl)-ethanol]
IC50 [1]: 147 nM
IC50 [2]: 295 nM

SMILES: OC(c1c(C2CC2)sc2cncn12)C1CCC(Cc2ccccc2)C1 (stereo not shown) [Example 77, (3-Benzyl-cyclopentyl)-(2-cyclopropyl-imidazo[5,1-b]thiazol-3-yl)-methanol]
IC50 [1]: 91.2 nM
IC50 [2]: 3900 nM

SMILES: CC(C)CC1CCC(C(O)c2c(C3CC3)sc3cncn23)C1 (stereo not shown) [Example 78, (2-Cyclopropyl-imidazo[5,1-b]thiazol-3-yl)-(3-isobutyl-cyclopentyl)-methanol]
IC50 [1]: 72.3 nM
IC50 [2]: 2010 nM

SMILES: COC1CCCC(C(O)c2c(C3CC3)sc3cncn23)C1 (stereo not shown) [Example 79, (2-Cyclopropyl-imidazo[5,1-b]thiazol-3-yl)-(3-methoxy-cyclohexyl)-methanol]
IC50 [1]: 109 nM
IC50 [2]: 1850 nM

SMILES: OC(c1c(C2CC2)sc2cncn12)C1CCc2ccccc2C1 (stereo not shown) [Example 80, (2-Cyclopropyl-imidazo[5,1-b]thiazol-3-yl)-(1,2,3,4-tetrahydro-naphthalen-2-yl)-methanol]
IC50 [1]: 34.2 nM
IC50 [2]: 1810 nM

SMILES: CC(C1CCCCC1)C(O)c1c(C2CC2)sc2cncn12 (stereo not shown) [Example 82, 2-Cyclohexyl-1-(2-cyclopropyl-imidazo[5,1-b]thiazol-3-yl)-propan-1-ol]
IC50 [1]: 87.3 nM
IC50 [2]: 822 nM

SMILES: OC(c1c(C2CC2)sc2cncn12)C1CCCC1c1ccccc1 (stereo not shown) [Example 83, (2-Cyclopropyl-imidazo[5,1-b]thiazol-3-yl)-(2-phenyl-cyclopentyl)-methanol]
IC50 [1]: 296 nM
IC50 [2]: 5200 nM

SMILES: CC1(C)CCCC1C(O)c1c(C2CC2)sc2cncn12 (stereo not shown) [Example 84, (2-Cyclopropyl-imidazo[5,1-b]thiazol-3-yl)-(2,2-dimethyl-cyclopentyl)-methanol]
IC50 [1]: 74 nM
IC50 [2]: 133 nM

SMILES: CC1(c2ccccc2)CCC(C(O)c2c(C3CC3)sc3cncn23)C1 (stereo not shown) [Example 88, (2-Cyclopropyl-imidazo[5,1-b]thiazol-3-yl)-(3-methyl-3-phenyl-cyclopentyl)-methanol]
IC50 [1]: 76.7 nM
IC50 [2]: 1280 nM

SMILES: OC(CC1CCCC2CCCCC21)c1c(C2CC2)sc2cncn12 (stereo not shown) [Example 89, 1-(2-Cyclopropyl-imidazo[5,1-b]thiazol-3-yl)-2-(decahydro-naphthalen-1-yl)-ethanol]
IC50 [1]: 528 nM
IC50 [2]: 2130 nM

SMILES: OC(c1c(C2CC2)sc2cncn12)C1CCC2CCCCC2C1 (stereo not shown) [Example 90, (2-Cyclopropyl-imidazo[5,1-b]thiazol-3-yl)-(decahydro-naphthalen-2-yl)-methanol]
IC50 [1]: 133 nM
IC50 [2]: 1080 nM

SMILES: OC(c1c(C2CC2)sc2cncn12)C1CCCC1Cc1ccccc1 (stereo not shown) [Example 91, (2-Benzyl-cyclopentyl)-(2-cyclopropyl-imidazo[5,1-b]thiazol-3-yl)-methanol]
IC50 [1]: 288 nM
IC50 [2]: 1640 nM

Continued, values first:

IC50 [1]: 20.5 nM
IC50 [2]: 356 nM
SMILES: O[C@@H](CC1CCCC1)c1c(C2CC2)sc2cncn12 [Example 24a, (S)-2-Cyclopentyl-1-(2-cyclopropyl-imidazo[5,1-b]thiazol-3-yl)-ethanol]

IC50 [1]: 22.2 nM
IC50 [2]: 358 nM
SMILES: O[C@@H](CC1CCCCCC1)c1c(C2CC2)sc2cncn12 [Example 28a, (S)-2-Cycloheptyl-1-(2-cyclopropyl-imidazo[5,1-b]thiazol-3-yl)-ethanol]

IC50 [1]: 19.5 nM
IC50 [2]: 262 nM
SMILES: CC1(C)CCC(C[C@H](O)c2c(C3CC3)sc3cncn23)C1 (stereo partly drawn) [Example 34a, (S)-1-(2-Cyclopropyl-imidazo[5,1-b]thiazol-3-yl)-2-(3,3-dimethyl-cyclopentyl)-ethanol]

IC50 [1]: 5.03 nM
IC50 [2]: 246 nM
SMILES: CC1(C)CC([C@H](O)c2c(C3CC3)sc3cncn23)C1 [Example 36a, (S)-(2-Cyclopropyl-imidazo[5,1-b]thiazol-3-yl)-(3,3-dimethyl-cyclobutyl)-methanol]

IC50 [1]: 15 nM
IC50 [2]: 328 nM
SMILES: CC1(C)CC[C@@H]([C@H](O)c2c(C3CC3)sc3cncn23)C1 [Example 47a, (S)-(2-Cyclopropyl-imidazo[5,1-b]thiazol-3-yl)-((R)-3,3-dimethyl-cyclopentyl)-methanol]

IC50 [1]: 5.99 nM
IC50 [2]: 190 nM
SMILES: CC1(C)CC[C@H]([C@H](O)c2c(C3CC3)sc3cncn23)C1 [Example 47b, (S)-(2-Cyclopropyl-imidazo[5,1-b]thiazol-3-yl)-((S)-3,3-dimethyl-cyclopentyl)-methanol]

IC50 [1]: 4.37 nM
IC50 [2]: 42.5 nM
SMILES: CC1([C@H](O)c2c(C3CC3)sc3cncn23)CCCC1 [Example 48a, (S)-(2-Cyclopropyl-imidazo[5,1-b]thiazol-3-yl)-(1-methyl-cyclopentyl)-methanol]

IC50 [1]: 20 nM
IC50 [2]: 494 nM
SMILES: O[C@@H](c1ccccc1)c1c(C2CC2)sc2cncn12 [Example 50a, (S)-(2-Cyclopropyl-imidazo[5,1-b]thiazol-3-yl)-phenyl-methanol]

IC50 [1]: 20.9 nM
IC50 [2]: 341 nM
SMILES: O[C@H](c1c(C(F)(F)F)sc2cncn12)C1CCCCC1 [Example 63a, (S)-Cyclohexyl-(2-trifluoromethyl-imidazo[5,1-b]thiazol-3-yl)-methanol]

IC50 [1]: 4.63 nM
IC50 [2]: 11.6 nM
SMILES: C=Cc1sc2cncn2c1[C@@H](O)C1CCCCC1 [Example 68a, (S)-Cyclohexyl-(2-vinyl-imidazo[5,1-b]thiazol-3-yl)-methanol]

IC50 [1]: 6.45 nM
IC50 [2]: 2300 nM
SMILES: O[C@H](c1c(C2CC2)sc2cncn12)[C@H]1CC[C@H](c2ccccc2)CC1 [Example 73a, (S)-(2-Cyclopropyl-imidazo[5,1-b]thiazol-3-yl)-(trans-4-phenyl-cyclohexyl)-methanol]
